The values below come from patent US12221432B2, “Estrogen receptor antagonist” (CHIA TAI TIANQING PHARMACEUTICAL GROUP CO., LTD., priority 2018, dated 2025).

Structures can show the parent of a compound that is named as a salt.

The Papp A→B is the apparent permeability from the apical to the basolateral side of a cell layer. Read a high Papp A→B as ready permeation. In general, Papp B→A refers to how fast a substance crosses the layer from the basolateral side. In general, efflux ratio refers to a quotient of directional permeabilities that is used to spot active efflux.

One data set has as its system P-gp (human MDR1). Kind of data set: MDR1-MDCK two-way permeability assay. The data set is classed as in vitro ADME, canine. Particulars: dog. From the text:
In this study, the MDR1-MDCKII cell line authorized by the Piet Borst Laboratory of the Netherlands Cancer Institute was used as the in vitro model. It is a Madin-Darby canine kidney cell transfected with human multiple drug resistance gene (MDR1). The cells can stably express the efflux transporter P-gp, so it is suitable for screening P-gp substrates or inhibitors and predicting the permeability of the compounds through barriers with high efflux effects in the duodenum, blood-brain barrier, […] and kidney units, etc. This study was intended to use MDR1-MDCK II cells for investigating the two-way permeability of the test compounds through the MDR1-MDCK II cell model.
Procedures: The standard conditions are as follows: • Test concentration: 2 μM (DMSO≤1%); • Replicate: n=2; • Direction: Two-way transport, including two directions: A→B and B→A; • Incubation time: single time point, 2.5 hours; • Transport buffer: HBSS buffer containing 10 mM Hepes, pH 7.4; Incubation condition: 37° C., 5% CO2.
After the incubation, sample solutions at the dosing end and the receiving end were collected and mixed with the cold acetonitrile solution containing the internal standard immediately. LC/MS/MS method was used to analyze the concentration of the test compounds in all samples (including the initial dosing solution, the dosing end samples and the receiving end samples). The apparent permeability coefficient, efflux ratio and other parameters were calculated.

The nature of data set [1]: Metabolic stability in liver microsome (CD-1 mouse). The data set is classed as in vitro ADME, CD-1 mice. Here is the method: Objective: To determine the metabolic stability of test compounds in the liver microsomes of humans, CD-1 5 mice and SD rats (Corning Co., Ltd., Miaotong Biological Technology Co., Ltd., Miaotong Biological Technology Co., Ltd.).
Procedures: Firstly, eight 96-well plates were prepared, and named T0, T5, T10, T20, T30, T60, NCF60 and BLANK; except for BLANK (added with buffer at 10 μL/well), the plates were added with the solution of compounds at 10 μL/well. Prepared microsomes were added to the 7 plates (80 μL/well), except for the T0 10 plate. The NCF60 plate was added with the buffer at 10 μL/well, and incubated in a 37° C. water bath, and timing was started:
Prepared NADPH cofactor working solution was aliquoted into a 96-well shallow-well plate serving as a loading slot. Each plates was added with the solution to at 10 μL/well by a 96-channel pipette and incubated in a 37° C. water bath to start the reaction:
At each time point, termination solution (cold acetonitrile containing 100 ng/mL Tolbutamide and 100 ng/mL Labetalol as internal standard) was added at 300 μL/well to stop the reaction, and the mixture was mixed well; the mixture was centrifuged at 4000 rpm for 20 minutes to precipitate the protein; the supernatant was transferred at 100 μL/well to a new 96-well plate containing 300 μL/well of HPLC water with a 96-channel pipette, and the mixture was mixed well. […]

On to `CC/C(=C(/c1ccc(OCCNC/C=C/C(=O)N(C)C)nc1)c1[nH]c2ccccc2c1Cl)c1ccccc1` [Compound 3 monohydrochloride], for which the apical-to-basolateral permeability (Papp A→B) at 2.5 h, 2 μM in the data set on P-gp (human MDR1) (MDCK-MDR1, A-B, pH 7.4) is 0.44 ×10⁻⁶ cm/s. Moreover, the apparent permeability from basolateral to apical (Papp B→A) at 2.5 h, 2 μM in the data set with P-gp (human MDR1) (MDCK-MDR1, B-A, pH 7.4) stood at 1.93 ×10⁻⁶ cm/s. Besides, the efflux ratio at 2.5 h, 2 μM in the data set on P-gp (human MDR1) (MDCK-MDR1, pH 7.4, B-A/A-B) is 4.39. Further, the “Stability in liver microsomes” value in data set [1] turned out to be 43.
